Test results published in patent US9133262B2, “Somatostatin antagonists” (Ipsen Pharma S.A.S., priority 1996, dated 2015).
Positions of bridges follow the written chain, without caps; N, C: chain ends. Non-standard residues stand in square brackets, D forms with d. Residues, ends and D or L forms follow the SMILES beside them. Phe(F5) = N[C@@H](Cc1c(F)c(F)c(F)c(F)c1F)C(=O)O; dDip = N[C@@H](C(=O)O)C(c1ccccc1)c1ccccc1; dPhe(4-Cl) = N[C@H](Cc1ccc(Cl)cc1)C(=O)O; Dip = N[C@H](C(=O)O)C(c1ccccc1)c1ccccc1; Phe(3-F) = N[C@@H](Cc1cccc(F)c1)C(=O)O; Phe(4-F) = N[C@@H](Cc1ccc(F)cc1)C(=O)O; 2Nal = N[C@@H](Cc1ccc2ccccc2c1)C(=O)O; d2Nal = N[C@H](Cc1ccc2ccccc2c1)C(=O)O; Phe(2-F) = N[C@@H](Cc1ccccc1F)C(=O)O; 2Pal = N[C@@H](Cc1ccccn1)C(=O)O; 3Pal = N[C@@H](Cc1cccnc1)C(=O)O

What follows are compounds tested on rat pituitary cells. Details: 3 h.
Type: cell-based
Text: Bioassay on the In Vitro Release of Growth Hormone
(a) Rat Pituitary Cell Dispersion
Pituitaries from adult Charles River CD male rats (Wilmington, Mass.) housed under controlled conditions were dispersed and cultured using aseptic technique by modification of previously described methods (Hoefer, M. T., et al., Mol. Cell. Endocrinol. 35:229 (1984); Ben-Jonathan, N., et al., Methods Enzymol. 103:249 (1983); and Heiman, M. L., et al., Endocrinology 116:410 (1985)). Pituitaries were removed from sacrificed rats, sectioned, and then placed into a siliconized, liquid scintillation vial containing 2 ml 0.2% trypsin (Worthington Biochemicals, Freehold, N.J.) in sterile-filtered Krebs-Ringer bicarbonate buffer supplemented with 1% bovine serum albumin, 14 mM glucose, modified Eagle medium (MEM) vitamin solution, and MEM amino acids (Gibco Laboratories, Grand Island, N.Y.) (KRBGA). All glassware was siliconized as described by Sayers, et al., Endocrinology 88:1063 (1971). The fragments were incubated in a water bath for 35 min at 37° C. with agitation. The vial contents then were poured into a scintillation vial containing 2 ml 0.1% DNase (Sigma Chemical Co., St. Louis, Mo.) in KRBGA and incubated for 2 min at 37° C. with agitation. After incubation, the tissue was decanted into a 15 ml centrifuge tube and allowed to settle. Medium was discarded, and pituitary sections were washed 3 times with 1 ml fresh-KRBGA. The cells were then dispersed in 2 ml 0.05% LBI (lima bean trypsin inhibitor, Worthington Biochemicals) by gently drawing the fragments into and expelling them out of a siliconized, fire polished Pasteur pipette. Dispersed cells were then filtered through a 630 μm diameter Nylon mesh (Tetko, Elmsford, N.Y.) into a fresh 15 ml centrifuge tube. An additional 2 ml of 0.05% LBI solution was used to rinse the first tube and was transferred to the second tube with filtering.
The dispersed cells were then further diluted with approximately 15 ml sterile-filtered Dulbecco's modified Eagle medium (GIBCO), which was supplemented with 2.5% fetal calf serum (GIBCO), 3% horse serum (GIBCO), 10% fresh rat serum (stored on ice for no longer than 1 hr) from the pituitary donors, 1% MEM non-essential amino acids (GIBCO), and gentamycin (10 ng/ml; Sigma) and nystatin (10,000 U/ml; GIBCO). The cells were poured into a 50 ml round-bottomed glass extraction flask with a large diameter opening and then randomly plated at a density of approximately 200,000 cells per well (Co-star cluster 24; Rochester Scientific Co., Rochester, N.Y.). The plated cells were maintained in the above Dulbecco's medium in a humidified atmosphere of 95% air and 5% CO2 at 37° C. for 4-5 days.
(c) Experimental Incubation and IC50 Determination
In preparation for a hormone challenge, the cells were washed 3 times with medium 199 (GIBCO) to remove old medium and floating cells. Each treatment well contained a total volume of 1 ml medium 199 containing 1% BSA (fraction V; Sigma) with treatments as described below. Each antagonist candidate was tested using a single 24-well cell culture plate. Each treatment was performed in triplicate. Each plate contained 8 treatment groups: one 1 nM growth hormone releasing factor (GRF) (1-29)NH2-stimulated control group; one 1 nM somatostatin-inhibited control group in the presence of 1 nM GRF(1-29)NH2; and 6 doses of a given antagonist in the presence of both 1 nM SRIF and 1 nM GRF per plate. After 3 hrs at 37° C. in a air/carbon dioxide atmosphere (95/5%), the medium was removed and stored at −20° C. until radioimmunoassayed for growth hormone content. IC50's of each antagonist versus 1 nM SRIF were calculated using a computer program (SigmaPlot, Jandel Scientific, San Rafael, Calif.) with the maximum response constrained to the value of the 1 nM GRF(1-29)NH2-stimulated control.

Compound | IC50
CC(C)[C@@H]1NC(=O)[C@H](CCCCN)NC(=O)[C@@H](Cc2c[nH]c3ccccc23)NC(=O)[C@H](Cc2c[nH]cn2)NC(=O)[C@H](NC(=O)[C@@H](N)Cc2c(F)c(F)c(F)c(F)c2F)CSSC[C@@H](C(=O)N[C@@H](Cc2c(F)c(F)c(F)c(F)c2F)C(N)=O)NC1=O [Analog No. 11, H2—F5-Phe-D-Cys-His-D-Trp-Lys-Val-Cys-F5-Phe-NH2] (H-[Phe(F5)][dC]H[dW]KVC[Phe(F5)]-NH2; disulfide 2-7) | 720 nM
CC(C)[C@@H]1NC(=O)[C@H](CCCCN)NC(=O)[C@@H](Cc2c[nH]c3ccccc23)NC(=O)[C@H](Cc2cccnc2)NC(=O)[C@H](NC(=O)[C@@H](N)Cc2cccc(F)c2)CSSC[C@@H](C(=O)N[C@@H](Cc2cccc(F)c2)C(N)=O)NC1=O [Analog No. 14, H2-m-F-Phe-D-Cys-Pal-D-Trp-Lys-Val-Cys-m-F-Phe-NH2] (H-[Phe(3-F)][dC][3Pal][dW]KVC[Phe(3-F)]-NH2; disulfide 2-7) | 110 nM
CC(C)[C@@H]1NC(=O)[C@H](CCCCN)NC(=O)[C@@H](Cc2c[nH]c3ccccc23)NC(=O)[C@H](Cc2cccnc2)NC(=O)[C@H](NC(=O)[C@@H](N)Cc2c(F)c(F)c(F)c(F)c2F)CSSC[C@@H](C(=O)N[C@@H](Cc2c(F)c(F)c(F)c(F)c2F)C(N)=O)NC1=O [Analog No. 16, H2—F5-Phe-D-Cys-Pal-D-Trp-Lys-Val-Cys-F5-Phe-NH2] (H-[Phe(F5)][dC][3Pal][dW]KVC[Phe(F5)]-NH2; disulfide 2-7) | 820 nM
CC(C)[C@@H]1NC(=O)[C@H](CCCCN)NC(=O)[C@@H](Cc2c[nH]c3ccccc23)NC(=O)[C@H](Cc2ccccn2)NC(=O)[C@H](NC(=O)[C@@H](N)Cc2c(F)c(F)c(F)c(F)c2F)CSSC[C@@H](C(=O)N[C@@H](Cc2c(F)c(F)c(F)c(F)c2F)C(N)=O)NC1=O [Analog No. 17, H2—F5-Phe-D-Cys-2-Pal-D-Trp-Lys-Val-Cys-F5-Phe-NH2] (H-[Phe(F5)][dC][2Pal][dW]KVC[Phe(F5)]-NH2; disulfide 2-7) | 1000 nM
CC(C)[C@H](NC(=O)[C@H](CCCCN)NC(=O)[C@@H](Cc1c[nH]c2ccccc12)NC(=O)[C@H](Cc1ccc(O)cc1)NC(=O)[C@@H](Cc1ccc(Cl)cc1)NC(=O)[C@@H](N)Cc1ccc2ccccc2c1)C(=O)N[C@@H](Cc1ccccc1)C(=O)N[C@@H](Cc1ccc2ccccc2c1)C(N)=O [Analog No. 23, H2-β-Nal-D-Cpa-Tyr-D-Trp-Lys-Val-Phe-β-Nal-NH2] (H-[2Nal][dPhe(4-Cl)]Y[dW]KVF[2Nal]-NH2) | 910 nM

The remaining lines, values ahead:

IC50 | Compound
620 nM | CC(C)[C@@H]1NC(=O)[C@H](CCCCN)NC(=O)[C@@H](Cc2c[nH]c3ccccc23)NC(=O)[C@H](Cc2cccnc2)NC(=O)[C@H](NC(=O)[C@@H](N)C(c2ccccc2)c2ccccc2)CSSC[C@@H](C(=O)N[C@H](C(N)=O)C(c2ccccc2)c2ccccc2)NC1=O [Analog No. 10, H2-Dip-D-Cys-Pal-D-Trp-Lys-Val-Cys-Dip-NH2] (H-[Dip][dC][3Pal][dW]KVC[Dip]-NH2; disulfide 2-7)
56 nM | CC(C)[C@@H]1NC(=O)[C@H](CCCCN)NC(=O)[C@@H](Cc2c[nH]c3ccccc23)NC(=O)[C@H](Cc2cccnc2)NC(=O)[C@H](NC(=O)[C@@H](N)Cc2ccc(F)cc2)CSSC[C@@H](C(=O)N[C@@H](Cc2ccc(F)cc2)C(N)=O)NC1=O [Analog No. 12, H2-p-F-Phe-D-Cys-Pal-D-Trp-Lys-Val-Cys-p-F-Phe-NH2] (H-[Phe(4-F)][dC][3Pal][dW]KVC[Phe(4-F)]-NH2; disulfide 2-7)
110 nM | CC(C)[C@@H]1NC(=O)[C@H](CCCCN)NC(=O)[C@@H](Cc2c[nH]c3ccccc23)NC(=O)[C@H](Cc2cccnc2)NC(=O)[C@H](NC(=O)[C@@H](N)C(c2ccccc2)c2ccccc2)CSSC[C@@H](C(=O)N[C@@H](Cc2ccc3ccccc3c2)C(N)=O)NC1=O [Analog No. 13, H2-Dip-D-Cys-Pal-D-Trp-Lys-Val-Cys-β-Nal-NH2] (H-[Dip][dC][3Pal][dW]KVC[2Nal]-NH2; disulfide 2-7)
140 nM | CC(C)[C@@H]1NC(=O)[C@H](CCCCN)NC(=O)[C@@H](Cc2c[nH]c3ccccc23)NC(=O)[C@H](Cc2cccnc2)NC(=O)[C@H](NC(=O)[C@@H](N)Cc2ccccc2F)CSSC[C@@H](C(=O)N[C@@H](Cc2ccccc2F)C(N)=O)NC1=O [Analog No. 15, H2-o-F-Phe-D-Cys-Pal-D-Trp-Lys-Val-Cys-o-F-Phe-NH2] (H-[Phe(2-F)][dC][3Pal][dW]KVC[Phe(2-F)]-NH2; disulfide 2-7)
380 nM | CC(C)[C@@H]1NC(=O)[C@H](CCCCN)NC(=O)[C@@H](Cc2c[nH]c3ccccc23)NC(=O)[C@H](Cc2cccnc2)NC(=O)[C@H](NC(=O)[C@H](N)C(c2ccccc2)c2ccccc2)CSSC[C@@H](C(=O)N[C@@H](Cc2ccc3ccccc3c2)C(N)=O)NC1=O [Analog No. 18, H2-D-Dip-D-Cys-Pal-D-Trp-Lys-Val-Cys-β-Nal-NH2] (H-[dDip][dC][3Pal][dW]KVC[2Nal]-NH2; disulfide 2-7)
110 nM | CC(C)[C@@H]1NC(=O)[C@H](CCCCN)NC(=O)[C@@H](Cc2c[nH]c3ccccc23)NC(=O)[C@H](Cc2c[nH]cn2)NC(=O)[C@H](NC(=O)[C@@H](N)Cc2ccc3ccccc3c2)CSSC[C@@H](C(=O)N[C@@H](C(N)=O)C(c2ccccc2)c2ccccc2)NC1=O [Analog No. 19, H2-β-Nal-D-Cys-His-D-Trp-Lys-Val-Cys-D-Dip-NH2] (H-[2Nal][dC]H[dW]KVC[dDip]-NH2; disulfide 2-7)
120 nM | CC(C)[C@@H]1NC(=O)[C@H](CCCCN)NC(=O)[C@@H](Cc2c[nH]c3ccccc23)NC(=O)[C@H](Cc2c[nH]cn2)NC(=O)[C@H](NC(=O)[C@@H](N)C(c2ccccc2)c2ccccc2)CSSC[C@@H](C(=O)N[C@@H](Cc2ccc3ccccc3c2)C(N)=O)NC1=O [Analog No. 20, H2-Dip-D-Cys-His-D-Trp-Lys-Val-Cys-β-Nal-NH2] (H-[Dip][dC]H[dW]KVC[2Nal]-NH2; disulfide 2-7)
970 nM | CC(C)[C@@H]1NC(=O)[C@H](CCCCN)NC(=O)[C@@H](Cc2c[nH]c3ccccc23)NC(=O)[C@H](Cc2c[nH]cn2)NC(=O)[C@H](NC(=O)[C@@H](N)C(c2ccccc2)c2ccccc2)CSSC[C@@H](C(=O)N[C@H](C(N)=O)C(c2ccccc2)c2ccccc2)NC1=O [Analog No. 21, H2-Dip-D-Cys-His-D-Trp-Lys-Val-Cys-Dip-NH2] (H-[Dip][dC]H[dW]KVC[Dip]-NH2; disulfide 2-7)
66 nM | CC(C)[C@@H]1NC(=O)[C@H](CCCCN)NC(=O)[C@@H](Cc2c[nH]c3ccccc23)NC(=O)[C@H](Cc2c[nH]cn2)NC(=O)[C@H](NC(=O)[C@@H](N)Cc2ccc3ccccc3c2)CSSC[C@@H](C(=O)N[C@@H](Cc2ccc3ccccc3c2)C(N)=O)NC1=O [Analog No. 22, H2-β-Nal-D-Cys-His-D-Trp-Lys-Val-Cys-β-Nal-NH2] (H-[2Nal][dC]H[dW]KVC[2Nal]-NH2; disulfide 2-7)

Same assay, conditions: cultured rat pituitary cells; 1 nM SRIF and 1 nM GRF(1-29)NH2; 3 hrs at 37° C.; growth hormone by radioimmunoassay; read-out: IC50 of antagonist versus 1 nM SRIF (growth hormone release)

Compound | IC50
CC(C)[C@@H]1NC(=O)[C@H](CCCCN)NC(=O)[C@@H](Cc2c[nH]c3ccccc23)NC(=O)[C@H](Cc2ccc(O)cc2)NC(=O)[C@H](NC(=O)[C@H](N)Cc2ccc3ccccc3c2)CSSC[C@@H](C(=O)N[C@@H](Cc2ccc3ccccc3c2)C(N)=O)NC1=O [Analog No. 9, H2-D-β-Nal-D-Cys-Tyr-D-Trp-Lys-Val-Cys-β-Nal-NH2] (H-[d2Nal][dC]Y[dW]KVC[2Nal]-NH2; disulfide 2-7) | 1360 nM
